Test results published in patent publication US20190016689A1, “NOVEL FLUORINATED QUINAZOLINE DERIVATIVES AS EGFR INHIBITORS” (TRILLIUM THERAPEUTICS INC., priority 2016, published 2019).

Columns and labels:
MDA-MB-468 = experiment: NCI screening panel (SRB); conditions: Homo sapiens, MDA-MB-468, 48 h; for CC50: read-out: LC50
T-47D = experiment: NCI screening panel (SRB); type: cell-based; conditions: Homo sapiens, T47D, T-47D (Breast), 48 h; for CC50: read-out: LC50 (the source's name)
SF-539 = experiment: NCI screening panel (SRB); type: cell-based; conditions: Homo sapiens, SF-539 (CNS), 48 h; for CC50: read-out: LC50 (the source's name)
BT-549 = experiment: NCI screening panel (SRB); type: cell-based; conditions: Homo sapiens, BT-549 (Breast), 48 h; for CC50: read-out: LC50 (the source's name)
UACC-62 = experiment: NCI screening panel (SRB); type: cell-based; conditions: Homo sapiens; UACC-62 (Melanoma), 48 h
PC-3 = experiment: NCI screening panel (SRB); type: cell-based; conditions: Homo sapiens, PC-3 (Prostate), 48 h; for CC50: read-out: LC50 (the source's name)
HOP-92 = experiment: NCI screening panel (SRB); type: cell-based; conditions: Homo sapiens, HOP-92 (NSCLC), 48 h; for CC50: read-out: LC50 (the source's name)
LOXIMVI = experiment: NCI screening panel (SRB); type: cell-based; conditions: Homo sapiens, LOX IMVI, LOXIMVI (Melanoma), 48 h; for CC50: read-out: LC50 (the source's name)
OVCAR-5 = experiment: NCI screening panel (SRB); type: cell-based; conditions: Homo sapiens, OVCAR-5 (Ovarian), 48 h; for CC50: read-out: LC50 (the source's name)
NCI-H322M = experiment: cells; conditions: Homo sapiens, 48 h; for CC50: read-out: LC50
HOP-62 = experiment: NCI screening panel (SRB); type: cell-based; conditions: Homo sapiens, HOP-62 (NSCLC), 48 h; for CC50: read-out: LC50 (the source's name)
EPHA6 = biological target: T1, EPHA6 (Homo sapiens, UniProt Q9UF33); experiment: Binding to EPHA (kinase competition binding, qPCR); design: T7 phage fusion (kinase-tagged phage) or DNA tag for qPCR; made in house; host or cells: E. coli BL21-derived host (T7 phage) or HEK-293; conditions: 300 nM, read-out: % Control @ 300 nM
T1 sequence (Q9UF33 23-1036): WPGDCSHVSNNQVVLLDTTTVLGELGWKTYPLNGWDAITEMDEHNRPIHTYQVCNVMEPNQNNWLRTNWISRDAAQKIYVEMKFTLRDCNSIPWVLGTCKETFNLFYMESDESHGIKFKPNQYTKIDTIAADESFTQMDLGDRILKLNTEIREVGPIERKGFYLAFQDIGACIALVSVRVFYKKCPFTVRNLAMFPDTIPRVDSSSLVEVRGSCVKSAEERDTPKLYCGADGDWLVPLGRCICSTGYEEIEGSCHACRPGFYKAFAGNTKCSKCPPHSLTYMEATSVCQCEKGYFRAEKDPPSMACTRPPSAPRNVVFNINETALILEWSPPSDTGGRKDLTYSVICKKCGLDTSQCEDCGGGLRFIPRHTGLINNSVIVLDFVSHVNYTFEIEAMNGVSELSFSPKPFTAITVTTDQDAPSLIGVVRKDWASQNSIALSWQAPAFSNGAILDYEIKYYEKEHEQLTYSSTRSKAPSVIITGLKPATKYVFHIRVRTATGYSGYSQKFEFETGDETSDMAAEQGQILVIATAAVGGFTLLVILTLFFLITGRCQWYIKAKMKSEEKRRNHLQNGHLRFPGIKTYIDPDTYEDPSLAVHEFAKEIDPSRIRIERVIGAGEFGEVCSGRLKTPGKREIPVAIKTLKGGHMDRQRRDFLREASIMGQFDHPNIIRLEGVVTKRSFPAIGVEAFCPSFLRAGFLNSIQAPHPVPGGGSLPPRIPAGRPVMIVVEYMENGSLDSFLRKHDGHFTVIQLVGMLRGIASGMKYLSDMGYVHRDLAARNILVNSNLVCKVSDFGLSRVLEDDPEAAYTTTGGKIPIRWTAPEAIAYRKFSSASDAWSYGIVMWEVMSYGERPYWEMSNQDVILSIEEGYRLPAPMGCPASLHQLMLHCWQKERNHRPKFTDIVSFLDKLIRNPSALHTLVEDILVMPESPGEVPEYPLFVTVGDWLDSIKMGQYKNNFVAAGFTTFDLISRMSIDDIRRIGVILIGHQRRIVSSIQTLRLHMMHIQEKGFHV
Protocol: The lysates were centrifuged and filtered to remove cell debris. […] All reactions were performed in polystyrene 96-well plates in a final volume of 0.135 ml.

A549/ATCC = experiment: NCI screening panel (SRB); type: cell-based; conditions: Homo sapiens, A549/ATCC (NSCLC), 48 h; for CC50: read-out: LC50 (the source's name)
SK-OV-3 = experiment: NCI screening panel (SRB); type: cell-based; conditions: Homo sapiens, SK-OV-3 (Ovarian), 48 h; for CC50: read-out: LC50 (the source's name)
MCF7 = experiment: NCI screening panel (SRB); type: cell-based; conditions: Homo sapiens, MCF7 (Breast), 48 h; for CC50: read-out: LC50 (the source's name)
in vitro = conditions: human, Caco-2, pH 7.4
Protocol: At this stage of growth, cell monolayers were fully polarized and differentiated.
The permeability assay buffer was Hanks Balanced Salt Solution containing 10 mM HEPES and 15 mM glucose at a pH of 7.4. The dosing buffer contained 5 μM metoprolol (positive control), 5 μM atenolol (negative control) and 100 μM lucifer yellow. The buffer in the receiver chamber also contained 1% bovine serum albumin (BSA). The dosing solution concentration was 5 μM in the assay buffer. Digoxin (20 μM) was used as Pgp substrate control.
The known Pgp inhibitor was co-dosed at 50 μM with compound at 5 μM.
Cell monolayers were dosed on the apical side (A-to-B) or basolateral side (B-to-A) and incubated at 37° C. in a shaker (65 rpm). Samples were taken from the donor and receiver chambers at 120 minutes. Each determination was performed in duplicate.
Narrow-window mass extraction LC/MS analysis was performed for all samples from this study using a Waters Xevo quadrupole time-of-flight (QTof) mass spectrometer, to determine relative peak areas of parent compound. The percent of transported drug was calculated based on these peak areas, relative to the initial, dosing concentration.

Row | SMILES | GI50 (MDA-MB-468) [µM] | CC50 (MDA-MB-468) [µM] | GI50 (T-47D) [µM] | CC50 (T-47D) [µM] | GI50 (SF-539) [µM] | CC50 (SF-539) [µM] | GI50 (BT-549) [µM] | CC50 (BT-549) [µM] | GI50 (UACC-62) [µM] | LC50 (UACC-62) [µM] | GI50 (PC-3) [µM] | CC50 (PC-3) [µM] | GI50 (HOP-92) [µM] | CC50 (HOP-92) [µM] | GI50 (LOXIMVI) [µM] | CC50 (LOXIMVI) [µM] | GI50 (OVCAR-5) [µM] | CC50 (OVCAR-5) [µM] | GI50 (NCI-H322M) [µM] | CC50 (NCI-H322M) [µM] | further results
1 | O=C(/C=C/CN1CCCCC1)Nc1cc2c(Nc3ccc(F)c(Cl)c3F)ncnc2cc1OCCOC(F)F.O=C(O)/C=C\C(=O)O.O=C(O)/C=C\C(=O)O [Example I-10-MA, (E)-N-[4-(3-chloro-2,4-difluoro-anilino)-7-[2-(difluoromethoxy)ethoxy]quinazolin-6-yl]-4-(1-piperidyl)but-2-enamide di-maleic acid salt] | < 0.01 | 6.93 | 0.0814 | > 100 | 1.5 | 14.3 | 2.47 | 36.2 | 1.79 | 20.5 | 2.38 | 51 | 0.151 | 21.1 | 1.34 | 5.49 | 0.776 | 67.1 | < 0.01 | 30.3 | GI50 (HOP-62): 1.62 µM; CC50 (HOP-62): 39.5 µM; remaining binding at 0.3 µM (EPHA6): 3.9%; GI50 (A549/ATCC): 1 µM; CC50 (A549/ATCC): 36.6 µM; GI50 (SK-OV-3): 0.0405 µM; CC50 (SK-OV-3): 36 µM; GI50 (MCF7): 1.84 µM; CC50 (MCF7): 59.8 µM
2 | CN(C)C/C=C/C(=O)Nc1cc2c(Nc3ccc(F)c(Cl)c3F)ncnc2cc1OCCOC(F)F.O=C(O)/C=C\C(=O)O.O=C(O)/C=C\C(=O)O [Example I-9-MA, (E)-N-[4-(3-chloro-2,4-difluoro-anilino)-7-[2-(difluoromethoxy)ethoxy]quinazolin-6-yl]-4-(dimethylamino)but-2-enamide di-maleic acid salt] | < 0.01 | 0.701 | < 0.01 | 88.1 | 1.06 | 9.52 | 1.69 | 32.2 | 1.49 | 9.95 | 2.55 | 58.5 | 0.185 | 31.2 | 0.944 | 4.91 | 0.141 | 47.9 | < 0.01 | 28.2 | GI50 (HOP-62): 1.35 µM; CC50 (HOP-62): 41.5 µM; remaining binding at 0.3 µM (EPHA6): 3.5%; GI50 (A549/ATCC): 0.77 µM; CC50 (A549/ATCC): 36.3 µM; GI50 (SK-OV-3): < 0.01 µM; CC50 (SK-OV-3): 27.7 µM; GI50 (MCF7): 1.4 µM; CC50 (MCF7): 57.8 µM
3 | CN(C)C/C=C/C(=O)Nc1cc2c(Nc3cccc(Cl)c3F)ncnc2cc1OCCOC(F)F.O=C(O)/C=C\C(=O)O [Example I-5-MA, (E)-N-[4-(3-chloro-2-fluoro-anilino)-7-[2-(difluoromethoxy)ethoxy]quinazolin-6-yl]-4-(dimethylamino)but-2-enamide dimaleic acid salt] |  |  |  |  |  |  |  |  |  |  |  |  |  |  |  |  |  |  |  |  | Papp A→B at 120 min, 5 µM (in vitro): 13.5 ×10⁻⁶ cm/s; Papp B→A at 120 min, 5 µM (in vitro): 6.52 ×10⁻⁶ cm/s
4 | CN(C)C/C=C/C(=O)Nc1cc2c(Nc3ccc(F)c(Cl)c3)ncnc2cc1O[C@H]1CCOC1 [Afatinib, reference compound] |  |  |  |  |  |  |  |  |  |  |  |  |  |  |  |  |  |  |  |  | Papp A→B at 120 min, 5 µM (in vitro): 0.81 ×10⁻⁶ cm/s; Papp B→A at 120 min, 5 µM (in vitro): 16 ×10⁻⁶ cm/s
